# In patent publication US11279726B2, “Norbornene-based amphipathic compound and utilization thereof” (Industry-University Cooperation Foundation Hanyang …, priority 2017, dated 2022):
# Key:
# [1] = biological target: T1, uric acid-xanthine/H+ symporter (UapA) (Emericella nidulans, UniProt Q07307, G411V); experiment: UapA extraction and thermal stability by fluorescence size exclusion chromatography (FSEC); design: species or system Aspergillus nidulans; conditions: 1.0 wt % amphiphile, 10 minutes at 40° C.; compared with DDM
# T1 construct: made in house; host or cells: Saccharomyces cerevisiae FGY217
# Description: An experiment for measuring the structural stability of uric acid-xanthine/H+ symporter (UapA) isolated from Aspergillus nidulans using NBMs was performed. The structural stability of UapA was evaluated using […].
# Specifically, UapAG411VΔ1-11 (hereinafter, referred to as “UapA”) was expressed as GFP fusion in Saccharomyces cerevisiae FGY217 strain and isolated in a sample buffer (20 mM Tris (pH 7.5), 150 mM NaCl, 0.03% DDM, 0.6 mM xanthine) according to the method described in the literature written by J. Leung et al. (Mol. Membr. Biol. 2013, 30, 32-42). Membranes containing UapA were resuspended in PBS, 10 mM imidazole pH 8.0, 150 mM NaCl, 10% glycerol, and the protein concentration was measured. The membranes were adjusted to a concentration of 1 mg·ml^−1 and 1 ml aliquots were individually incubated with DDM or NBMs at a final amphiphilic material concentration of 1.0 wt % for 10 minutes at 40° C. 100 μl aliquots were removed from each tube, and a fluorescence reading was taken for each sample before and after ultracentrifugation at 150,000 g for 10 minutes to remove insoluble material. The remaining soluble fraction for each condition was submitted to fluorescent size exclusion chromatography (FSEC) using a Superose 6 column (GE Healthcare) equilibrated with DDM.
# [2] = Hydrodynamic radius / size distribution of micelles by dynamic light scattering (DLS); assay type: physicochemical; conditions: 1.0 wt % agent
# Description: A method for measuring the radius of a micelle is not particularly limited, and a method well known in the art may be used, and for example, the radius thereof may be measured using a dynamic light scattering (DLS) experiment.
# (§1) To identify the characteristics of NBMs synthesized in Preparation Example 1 to 6 according to the synthetic method of Example 1, molecular weights (MWs) of NBMs, critical micelle concentrations (CMCs) and hydrodynamic radii (Rh) of the micelles were measured.
# (§2) Specifically, the critical micelle concentrations (CMCs) were measured by fluorescent staining with diphenylhexatriene (DPH), and the hydrodynamic radii (Rh) of the micelle formed with individual agents (1.0 wt %) were measured by dynamic light scattering (DLS).
# [3] = biological target: T2, Salmonella typhimurium melibiose permease (MelBSt) (Salmonella typhimurium, UniProt P30878); experiment: MelBSt extraction and thermostability (SDS-PAGE / western blotting); conditions: 1.5 wt %
# T2 construct: made in house; host or cells: E. coli DW2 (ΔmelB, ΔlacZY)
# Description: An experiment of measuring structural stability of MelBSt (Salmonella typhimurium melibiose permease) protein with NBMs was carried out. The MelBSt protein was extracted from the membrane using NBMs or DDM, and the amounts and structure of the extracted proteins were analyzed by SDS-PAGE and western blotting. The concentration of the used amphiphilic compound was 1.5 wt %. The proteins were extracted at four temperatures (0, 45, 55, and 65° C.) and incubated at the same temperature for 90 minutes, and the amounts of the remaining proteins solubilized in an aqueous solution were measured, so as to simultaneously evaluate both performances of the compound such as protein extraction efficiency and stabilization activity. The amounts of the proteins extracted and stabilized by respective amphiphilic molecules were represented as relative values (%) to the amounts of total proteins contained in the membrane sample not treated with an amphiphilic molecule.
# Specifically, Salmonella typhimurium melibiose permease (MelBSt) with a C-terminal 10-His tag was expressed in E. coli DW2 cells (^ΔmelB and ^ΔlacZY) using plasmid pK95^ΔAHB/WT MelBSt/CH10. Cell growth and membrane preparation were carried out according to the method described in the literature written by A. S. Ethayathulla et al. (Nat. Commun. 2014, 5, 3009). Protein assays were carried out with a Micro BCA kit (Thermo Scientific, Rockford, Ill.). The measurement of MelBSt stability was carried out on NBMs or DDM according to the protocol described by P. S. Chae et al. (Nat. Methods 2010, 7, 1003-1008). Membrane samples containing MelBSt (final protein concentration was 10 mg/mL) were incubated with a solubilization buffer (20 mM sodium phosphate, pH 7.5, 200 mM NaCl, 10% glycerol, 20 mM melibiose) and 1.5% (w/v) of DDM or NBMs (X-NBM-C10, D-NBM-C10, X-NBM-C11 or D-NBM-C11) at four different temperatures (0, 45, 55, 65° C.) for 90 minutes. To remove insoluble materials, following ultracentrifugation at 355,590 g using a Beckman Optimal™ MAX ultracentrifuge with TLA-100 rotor for 45 minutes at 4° C. was performed, and 20 μg of each protein sample was separated by SDS-16% PAGE, and then immunoblotted with a Penta-His-HRP antibody (Qiagen, Germantown, Md.). MelBSt was detected using SuperSignal West Pico chemiluminescent substrate by an ImageQuant LAS 4000 Biomolecular Imager (GE Health Care Life Science).
# [4] = Critical micelle concentration by fluorescent staining with diphenylhexatriene (DPH); assay type: physicochemical; conditions: aqueous solution
# Description: A method for measuring CMC is not particularly limited, and a method widely known in the art may be used, for example, by fluorescence staining with diphenylhexatriene (DPH).
# as §1, §2
# β2AR-Gs complex = β2AR-Gs complex (Homo sapiens, UniProt P07550); experiment: Negative stain EM analysis of β2AR-Gs complex
# Description: A β2AR-Gs protein complex was prepared for electron microscopy using the conventional negative staining protocol, and imaged at room temperature with a Tecnai T12 electron microscope operated at 120 kV using low-dose procedures. Images were recorded at a magnification of 71,138× and a defocus value of approximately 1.4μ using a Gatan US4000 CCD camera. All images were binned (2×2 pixels) to obtain a pixel size of 4.16 A at the specimen level. Particles were manually excised using e2boxer (part of the EMAN2 software suite). 2D reference-free alignment and classification of particle projections were performed using ISAC. 14,556 projections of β2AR-Gs were subjected to ISAC, producing 199 classes consistent over two-way matching and accounting for 10,100 particle projections.
# [5] = biological target: T3, human β2 adrenergic receptor (β2AR) (Homo sapiens, UniProt P07550); experiment: β2AR stability: [3H]-DHA ligand binding activity of solubilized receptor
# T3 construct: made in house
# Description: An experiment of measuring the stability of human β2 adrenergic receptor (β2AR) and G-protein-coupled receptor (GPCR) for NBMs was carried out. That is, the receptor was extracted from the cell membranes by DDM and purified in the same amphiphilic compound. The DDM-purified receptor was diluted in individual DDM- or NBM-containing buffers to adjust the final compound concentration to be CMC+0.2 wt %. The receptor stability was assessed by measuring ligand binding activity using [3H]-DHA.
# To measure long-term stability of human β2AR with NBMs (D-NBM-C11 and X-NBM-C11) showing an excellent ligand binding activity of the receptor in the previous experiment, a radio-labeled ligand binding experiment was performed by the following method. β2AR was purified using 0.1% DDM (D. M. Rosenbaum et al., Science, 2007, 318, 1266-1273), and finally concentrated to approximately 10 mg/ml (approximately 200 μM). A main binding mixture containing 10 nM [^3H]-DHA supplemented with 0.5 mg/ml BSA was prepared in 0.2% amphiphilic compound (DDM or NBMs (D-NBM-C11 and X-NBM-C11)) using β2AR purified with DDM. The receptor purified with DDM or NBMs was incubated with 10 nM [^3H]-DHA at room temperature for 30 minutes. The mixture was loaded onto a G-50 column, the fractions were collected in a 1 ml binding buffer (20 mM HEPES pH 7.5, 100 mM NaCl, containing 0.5 mg/ml BSA and 20× CMC individual amphiphilic compounds). In addition, each fraction was supplemented with a 15 ml scintillation fluid, and receptor-bound [^3H]-DHA was measured using a scintillation counter (Beckman) at regular intervals for 3 days. The binding capacity of [^3H]-DHA was shown as a bar chart (FIG. 11a).
# In addition, β2AR was extracted from the membrane using 1.0 wt % of DDM or X-NBM-C11 and purified at 0.2 wt % for the same individual amphiphilic compounds. Structural stability of the receptor was assessed by ligand binding activity, which was measured with sample aliquots at regular intervals during 7-day incubation at room temperature. Each experiment was carried out in triplicate (FIG. 12b).
SMILES,Retention of monodispersed UapA-GFP peak after heating (FSEC) [1],"Rh (nm), hydrodynamic radius of micelles [2] [nm]",MelBSt membrane protein stabilization activity (overall) ([3]; elevated temperature),CMC [4] [mM],CMC (wt %) [4] [wt %],Particle dispersity of β2AR-Gs complex in negative stain EM (β2AR-Gs complex),"MelBSt protein extraction (solubilization) efficiency ([3]; 0° C. and 45° C., 90 minutes)","MelBSt protein extraction efficiency ([3]; 0° C., 90 minutes)","Amount of solubilized MelBSt protein ([3]; 65° C., 90 minutes)","Long-term ligand binding activity of β2AR ([3H]-DHA) ([5]; 0.2% amphiphile, room temperature, 3 days (7 days for receptor extracted with the amphiphile))",Initial ligand binding activity of β2AR ([3H]-DHA) ([5]; DDM-purified receptor diluted to CMC+0.2 wt % amphiphile)
"CCCCCCCCCCC(CCCCCCCCCC)(CO[C@@H]1O[C@H](CO)[C@@H](O[C@H]2O[C@H](CO)[C@@H](O)[C@H](O)[C@H]2O)[C@H](O)[C@H]1O)CO[C@@H]1O[C@H](CO)[C@@H](O[C@H]2O[C@H](CO)[C@@H](O)[C@H](O)[C@H]2O)[C@H](O)[C@H]1O [MNG-3, reference compound]",ineffective in preventing protein denaturation/aggregation,–,–,–,–,–,–,–,–,–,–
CCCCCCCCCCOCC1C2CC([C@@H]1COCCCCCCCCCC)[C@H](O[C@@H]1OC(CO)[C@@H](O[C@H]3OC(CO)[C@@H](O)C(O)C3O)C(O)C1O)C2O[C@@H]1OC(CO)[C@@H](O[C@H]2OC(CO)[C@@H](O)C(O)C2O)C(O)C1O (stereo partly drawn) [D-NBM-C10],slightly lower effect than DDM,3.5 ± 0.03,excellent membrane protein stabilization activity,~0.008,~0.0009,–,–,–,–,–,–
CCCCCCCCCOCC1C2CC([C@@H]1COCCCCCCCCC)[C@H](O[C@@H]1OC(CO)[C@@H](O[C@H]3OC(CO)[C@@H](O)C(O)C3O)C(O)C1O)C2O[C@@H]1OC(CO)[C@@H](O[C@H]2OC(CO)[C@@H](O)C(O)C2O)C(O)C1O (stereo partly drawn) [D-NBM-C9],low recovery of monodispersed protein peak,3.3 ± 0.04,–,~0.012,~0.0013,–,–,–,–,–,–
CCCCCCCCCOCC1C2CC([C@H]1COCCCCCCCCC)[C@H](O[C@@H]1OC(CO)[C@@H](O[C@H]3OC(CO)[C@@H](O)C(O)C3O)C(O)C1O)C2O[C@@H]1OC(CO)[C@@H](O[C@H]2OC(CO)[C@@H](O)C(O)C2O)C(O)C1O (stereo partly shown) [X-NBM-C9],more or less comparable to DDM,3.7 ± 0.03,–,~0.010,~0.0011,–,–,–,–,–,–
CCCCCCCCCCOCC1C2CC([C@H]1COCCCCCCCCCC)[C@H](O[C@@H]1OC(CO)[C@@H](O[C@H]3OC(CO)[C@@H](O)C(O)C3O)C(O)C1O)C2O[C@@H]1OC(CO)[C@@H](O[C@H]2OC(CO)[C@@H](O)C(O)C2O)C(O)C1O (stereo partly shown) [X-NBM-C10],more or less comparable to DDM,4.0 ± 0.02,–,~0.007,~0.0008,–,–,–,–,–,–
"CCCCCCCCCCCCO[C@@H]1O[C@H](CO)[C@@H](O[C@H]2O[C@H](CO)[C@@H](O)[C@H](O)[C@H]2O)[C@H](O)[C@H]1O [DDM, n-dodecyl-β-D-maltopyranoside, reference compound]",single monodispersed peak with relatively high intensity,3.4 ± 0.03,–,~0.17,~0.0087,aggregated particles,high MelBSt protein extraction efficiency,higher protein extraction efficiency than NBMs,no MelBSt protein solubilized in an aqueous solution was detectable,rapidly decreased over time,excellent initial ligand binding activity
